Tests used:
Assay in all cases: Method of dilutions in liquid medium (M.I.C.)
Type in all cases: cell-based
Settings in all cases: incubation twenty-four hours at 37° C.
[1] = system: Streptoccocus pyogenes group A 02A1UCI
Description: (§1) Method of Dilutions in Liquid Medium A series of tubes were prepared into which the same quantity of sterile nutritive medium is distributed. Increasing quantities of the product to be studied are distributed into each tube, then each tube is seeded with a bacterial strain. After incubation for twenty-four hours in a heating chamber at 37° C., the growth inhibition is evaluated by transillumination, which permits the minimal inhibitory concentrations (M.I.C.) to be determined, expressed in micrograms/cm^3.

[2] = system: Streptoccocus faecium group D 02D2UCI
Description: as §1

[3] = system: Streptoccocus pneumoniae 031515
Description: as §1

[4] = system: Streptoccocus agalactae group B 02B1UTI
Description: as §1

[5] = system: Streptoccocus faecalis group C 02D2UCI
Description: as §1

[6] = system: Streptoccocus aritis 02mmGR01
Description: as §1

[7] = system: Streptoccocus sp. group G 02GRGR5
Description: as §1

[8] = system: Streptoccocus agalactae group B 02B1811
Description: as §1

[9] = system: Streptoccocus aritis 02mmCH1
Description: as §1

[10] = system: Staphylococtus aureus 011UC4
Description: as §1

Compound	minimal inhibitory concentrations (M.I.C.) [1] [micrograms/cm^3]	minimal inhibitory concentrations (M.I.C.) [2] [micrograms/cm^3]	minimal inhibitory concentrations (M.I.C.) [3] [micrograms/cm^3]	minimal inhibitory concentrations (M.I.C.) [4]	minimal inhibitory concentrations (M.I.C.) [5] [micrograms/cm^3]	minimal inhibitory concentrations (M.I.C.) [6] [micrograms/cm^3]	minimal inhibitory concentrations (M.I.C.) [7] [micrograms/cm^3]	minimal inhibitory concentrations (M.I.C.) [8] [micrograms/cm^3]	minimal inhibitory concentrations (M.I.C.) [9] [micrograms/cm^3]	minimal inhibitory concentrations (M.I.C.) [10] [micrograms/cm^3]
CC[C@H]1OC(=O)[C@H](C)[C@@H](O)[C@H](C)[C@@H](O[C@@H]2O[C@H](C)C[C@H](N(C)C)[C@H]2O)[C@](C)(OC)C[C@@H](C)C(=O)[C@H](C)[C@H]2N(CCCCn3cnc(-c4cccnc4)c3)C(=O)O[C@]12C [Ex. 2, 11,12-dideoxy-3-d((2,6-dideoxy-3-C-methyl-3-O-methyl-alpha-L-ribohexopyranosyl)oxy)-3-hydroxy-6-O-methyl-12,11-(oxycarbonyl((4-(4-(3-pyridinyl)-1H-imidazol-1-yl)-butyl)imino))-erythromycin]	0.15	0.3	1	0.04 micrograms/cm^3	0.3	0.6	0.15	1.2	0.34	–
11,12-dideoxy-3-de((2,6-dideoxy-3-C-methyl-3-O-methyl-alpha-L-ribohexopyranosyl)oxy)-3-hydroxy-6-O-methyl-12,11-(oxycarbonyl(2-(3-(4-quinolinyl)propyl)hydrazono)) erythromycin [Ex. 1]	0.04	0.04	0.6	≦0.02 micrograms/cm^3	0.04	0.15	0.04	0.6	0.3	0.3

Source: patent USRE38520E1, “Erythromycin derivatives, method for preparing same, and use thereof as drugs” (Aventis Pharma S.A., priority 1996, dated 2004)
